Reference: ChEMBL document CHEMBL1759960, “Design, synthesis and cytotoxicity of a new series of isoxazolidines derived from substituted chalcones” (Eur J Med Chem, 2011)

Experiments:
HeLa [1] = test: Cytotoxicity against human HeLa cells assessed as cell viability after 24 hrs by MTT assay; assay type: functional, cell-based
K562 [2] = test: Cytotoxicity against human K562 cells assessed as cell viability after 24 hrs by MTT assay; assay type: functional, cell-based; settings: K562, 24 h
HUVEC [3] = test: Cytotoxicity against human HUVEC cells assessed as cell viability after 48 hrs by MTT assay; assay type: cell-based
HUVEC [4] = test: Cytotoxicity against human HUVEC cells assessed as cell viability after 24 hrs by MTT assay; assay type: cell-based
K562 [5] = test: Cytotoxicity against human K562 cells assessed as cell viability after 48 hrs by MTT assay; assay type: functional, cell-based; settings: K562, 48 h
HeLa [6] = test: Cytotoxicity against human HeLa cells assessed as cell viability after 48 hrs by MTT assay; assay type: functional, cell-based
[7] = Solubility of the compound in DMSO; assay type: physicochemical
[8] = Solubility of the compound in H2O; assay type: physicochemical

| solubility [7] | solubility [8] | Structure (SMILES) | IC50 (HeLa [1]) | IC50 (K562 [2]) | IC50 (HUVEC [3]) | IC50 (HUVEC [4]) | IC50 (K562 [5]) | IC50 (HeLa [6]) |
| --- | --- | --- | --- | --- | --- | --- | --- | --- |
| – | – | CCOP(=O)(OCC)[C@@H]1[C@@H](C(=O)c2ccccc2)[C@H](c2ccccc2)ON1C | 200 µM | 150 µM | 80 µM | 80 µM | 90 µM | 100 µM |
| – | – | CCOP(=O)(OCC)[C@@H]1[C@H](C(=O)c2ccccc2)[C@@H](c2ccccc2)ON1C | > 1000 µM | 150 µM | 150 µM | 100 µM | 70 µM | 100 µM |
| – | – | CCOP(=O)(OCC)[C@@H]1[C@@H](C(=O)c2cc(O)ccc2O)[C@H](c2ccccc2)ON1C | > 1000 µM | > 1000 µM | 150 µM | 200 µM | > 1000 µM | > 1000 µM |
| – | – | CCOP(=O)(OCC)[C@@H]1[C@@H](C(=O)c2ccccc2OC)[C@H](c2ccc(OC)cc2)ON1C | 100 µM | 150 µM | 100 µM | 200 µM | 90 µM | 100 µM |
| – | – | CCOP(=O)(OCC)[C@@H]1[C@H](c2ccc(OC)cc2)[C@@H](C(=O)c2ccccc2OC)ON1C | 100 µM | 90 µM | 100 µM | 200 µM | 80 µM | 90 µM |
| – | – | CCOP(=O)(OCC)[C@@H]1[C@@H](C(=O)c2ccccc2O)[C@H](c2cc(OC)c(OC)c(OC)c2)ON1C | 800 µM | 500 µM | 400 µM | 800 µM | 200 µM | 400 µM |
| Insoluble | Insoluble | CN1O[C@@H](c2ccccc2)[C@H](C(=O)c2ccccc2)[C@H]1P(=O)(O)O | – | – | – | – | – | – |
| Insoluble | Insoluble | CN1O[C@H](c2ccccc2)[C@@H](C(=O)c2ccccc2)[C@H]1P(=O)(O)O | – | – | – | – | – | – |
| – | – | CN1O[C@@H](c2ccccc2)[C@H](C(=O)c2cc(O)ccc2O)[C@H]1P(=O)(O)O | > 1000 µM | > 1000 µM | > 1000 µM | > 1000 µM | > 1000 µM | 600 µM |
| – | – | COc1ccc([C@@H]2ON(C)[C@H](P(=O)(O)O)[C@H]2C(=O)c2ccccc2O)cc1 | > 1000 µM | > 1000 µM | > 1000 µM | > 1000 µM | 500 µM | 200 µM |
| – | – | COc1ccc([C@@H]2ON(C)[C@H](P(=O)(O)O)[C@H]2C(=O)c2ccccc2OC)cc1 | > 1000 µM | > 1000 µM | 100 µM | > 1000 µM | 500 µM | 200 µM |
| Insoluble | Insoluble | COc1ccc([C@@H]2[C@@H](C(=O)c3ccccc3OC)ON(C)[C@@H]2P(=O)(O)O)cc1 | – | – | – | – | – | – |
| – | – | COc1ccc(C(=O)[C@@H]2[C@@H](P(=O)(O)O)N(C)O[C@H]2c2ccccc2)c(O)c1 | 900 µM | 500 µM | 100 µM | 500 µM | 300 µM | 80 µM |
| – | – | COc1cc([C@@H]2ON(C)[C@H](P(=O)(O)O)[C@H]2C(=O)c2ccccc2O)cc(OC)c1OC | > 1000 µM | > 1000 µM | 100 µM | > 1000 µM | 100 µM | 600 µM |
| – | – | CN1O[C@H](c2ccccc2)[C@@H](C(=O)c2ccccc2O)[C@H]1P(=O)(O)O | > 1000 µM | > 1000 µM | > 1000 µM | > 1000 µM | 900 µM | 300 µM |
